Laboratory results from paper PMC6155272, “Chroman-4-One Derivatives Targeting Pteridine Reductase 1 and Showing Anti-Parasitic Activity” (Molecules : A Journal of Synthetic Chemistry and Natural …, 2017).

Experiments:
CYP2D6 = molecular target: T1, CYP2D6 (Homo sapiens, UniProt P10635); test: Cytochrome P450 2D6 assay (P450-Glo); type: in vitro ADME; conditions: for inhibition at 10 µM: human
T1 construct: purchased Promega; host or cells: baculovirus-infected insect cells
Description: These assays made use of the PromegaP450-Glo™ (Madison, AL, USA) assay platform. Each CYP450 assay includes microsomal preparations of cytochromes from baculovirus-infected insect cells.

[1] = molecular target: T2, Trypanosoma brucei pteridine reductase 1 (TbPTR1) (Trypanosoma brucei brucei, UniProt O76290); test: TbPTR1 enzyme reporter assay (cytochrome-c reduction, 550 nm); type: biochemical; conditions: for IC50: compounds 1–3, SD agreed to ±10%; for inhibition at 50 µM: read-out: % Inhibition TbPTR1 (50 μM), 50 μM
T2 construct: made in house
T2 sequence (O76290 1-268): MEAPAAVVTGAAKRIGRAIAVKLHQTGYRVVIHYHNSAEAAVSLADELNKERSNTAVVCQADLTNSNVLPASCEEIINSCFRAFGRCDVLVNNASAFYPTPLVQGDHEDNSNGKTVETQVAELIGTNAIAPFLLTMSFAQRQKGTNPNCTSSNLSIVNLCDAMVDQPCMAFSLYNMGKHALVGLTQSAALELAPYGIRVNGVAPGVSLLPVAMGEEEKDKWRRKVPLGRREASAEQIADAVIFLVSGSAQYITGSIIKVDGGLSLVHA
Protocol: (§1) TbPTR1 and LmPTR1 were purified as reported in literature. The enzyme kinetic profile of each selected protein was characterized by a spectrophotometric assay. The experimental assay consists of enzyme kinetic reaction monitoring at 340 nm for a total time of 180 s. The enzyme kinetic activity was measured at steady-state concentration of 7,8-dihydro-L-biopterin (H2B) and NADPH substrates equal to 50 and 120 µM and varying the enzyme concentration in the 0.001–0.006 µM and 0.005–0.010–0.015–0.020–0.025–0.030 µM range for Lm- and TbPTR1, respectively. The resulting kcat values were equal to 0.68 (s^−1) and 7.2 (s^−1) for Tb- and LmPTR1, respectively. For both TbPTR1 and LmPTR1, the Km value evaluation assay for H2B- and NADPH-substrates was performed in the 0.3-0.6–0.9–1.2–2.4–4.8 µM and 3.0–6.0–12.0–40.0–90.0–190.0 µM concentrations range, respectively.
(§2) Compounds 1A–3A were evaluated as reported in our previous paper. The novel synthesized compounds 1–3 were tested towards TbPTR1 and LmPTR1 using the in vitro TbPTR1/LmPTR1 enzyme reporter assay. The experimental procedure consists of monitoring the non-enzymatic reduction reaction of cytochrome-c at 550 nm, related to the reduction reaction of H2B to tetrahydrobiopterin (H4B) by using NADPH as the cofactor. TbPTR1 and LmPTR1 enzyme activity was assayed in a buffer containing 20 mM sodium citrate (pH 6.0) in a final experimental volume equal to 600 µL. The final reaction mixture contained different substrates added in the following order: TbPTR1/LmPTR1 (0.018 µM/0.002 µM) in 20 mM Tris-HCl, glycerol 10% (v/v), pH 7.5; H2B at a final concentration equal to 0.3 µM; cytochrome-c (80 µM); Milli-Q water to a final volume of 600 µL and NADPH to a final concentration of 500 µM. Before the addition of NADPH, the reaction mixture was incubated for 10 min at 30 °C and 80 RPM. To allow the starting of the reaction, NADPH was added and the enzyme reaction was detected for a total time of 10 min at 30 °C, 550 nm. The inhibition profile characterization of compounds 1–3 was performed with a DU-640 spectrophotometer (Beckman Coulter, Brea, CA, USA). Each compound was assayed in duplicate against Tb/LmPTR1 target enzymes in the 0–10–25–50–80–150 µM concentrations range. At the different concentration values, the compounds were added to the reaction mixture (enzyme, H2B, cytochrome-c in 20 mM sodium citrate buffer and Milli-Q water) and incubated for 10 min at 30 °C, 80 RPM. The reaction was initiated by the addition of NADPH (500 µM) and monitored for 10 min at 30 °C, 550 nm. The absorbance values were processed by software analysis and transformed into the corresponding slopes. The percentages of inhibition and the IC50 values were determined.

Aurora B kinase = molecular target: T3, Aurora B kinase (Homo sapiens, UniProt Q96GD4); test: Aurora B kinase assay (ADP-Glo); type: biochemical
T3 construct: purchased Promega
T3 sequence (Q96GD4 whole entry): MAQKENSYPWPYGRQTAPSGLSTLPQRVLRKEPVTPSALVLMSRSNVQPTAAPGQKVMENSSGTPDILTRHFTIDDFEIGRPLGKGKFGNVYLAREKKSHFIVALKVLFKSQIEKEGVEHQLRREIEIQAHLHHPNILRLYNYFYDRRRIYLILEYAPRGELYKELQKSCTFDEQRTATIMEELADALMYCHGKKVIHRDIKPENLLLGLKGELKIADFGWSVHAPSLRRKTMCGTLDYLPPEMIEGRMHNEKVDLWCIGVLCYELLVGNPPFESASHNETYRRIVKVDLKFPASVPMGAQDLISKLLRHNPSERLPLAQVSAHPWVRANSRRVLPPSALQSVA
Description: This assay made use of the ADP-Glo Kinase Enzyme System from Promega (Madison, AL, USA), which is a bioluminescent assay that employs firefly luciferase in a coupled-enzyme assay format to enable detection of adenosine diphosphate (ADP) levels from ATPase assays.

[2] = molecular target: T4, Leishmania major pteridine reductase 1 (LmPTR1) (Leishmania major, UniProt Q01782); test: LmPTR1 enzyme reporter assay (cytochrome-c reduction, 550 nm); type: biochemical; conditions: for IC50: compounds 1–3, SD agreed to ±10%; for inhibition at 50 µM: read-out: % Inhibition LmPTR1 (50 μM)
T4 construct: made in house
T4 sequence (Q01782 1-288): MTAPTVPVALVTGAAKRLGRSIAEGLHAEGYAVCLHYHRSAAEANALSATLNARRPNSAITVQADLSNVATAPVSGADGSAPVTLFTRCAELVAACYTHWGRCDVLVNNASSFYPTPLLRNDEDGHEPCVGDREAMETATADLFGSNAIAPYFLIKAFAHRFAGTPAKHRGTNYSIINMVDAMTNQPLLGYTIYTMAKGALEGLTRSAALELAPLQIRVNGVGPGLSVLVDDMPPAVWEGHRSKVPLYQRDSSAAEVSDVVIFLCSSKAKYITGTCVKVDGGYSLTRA
Protocol: as §1, §2

T1 sequence (P10635 whole entry): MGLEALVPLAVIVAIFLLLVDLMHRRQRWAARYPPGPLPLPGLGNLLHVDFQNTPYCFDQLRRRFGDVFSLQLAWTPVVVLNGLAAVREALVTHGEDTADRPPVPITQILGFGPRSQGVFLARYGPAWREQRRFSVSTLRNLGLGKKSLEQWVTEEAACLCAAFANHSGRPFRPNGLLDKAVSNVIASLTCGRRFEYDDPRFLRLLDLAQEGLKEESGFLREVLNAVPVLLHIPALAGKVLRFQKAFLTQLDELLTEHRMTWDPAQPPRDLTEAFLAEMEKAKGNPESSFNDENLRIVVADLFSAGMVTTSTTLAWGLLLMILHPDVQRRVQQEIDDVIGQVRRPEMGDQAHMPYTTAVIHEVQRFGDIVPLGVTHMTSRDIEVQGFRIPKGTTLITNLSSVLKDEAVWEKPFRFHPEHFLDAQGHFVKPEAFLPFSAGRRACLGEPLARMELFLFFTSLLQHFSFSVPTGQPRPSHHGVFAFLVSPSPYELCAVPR

| SMILES | IC50 (CYP2D6) [µM] | inhibition at 10 µM (CYP2D6) [%] | IC50 [1] [µM] | inhibition at 50 µM ([1]; compounds 1–3 and control) [%] | inhibition at 10 µM (Aurora B kinase) [%] | IC50 [2] [µM] | inhibition at 50 µM [2] [%] | % Inhibition TbPTR1 (50 μM) ([1]; 50 μM, compounds 1–3 and control) [%] |
| --- | --- | --- | --- | --- | --- | --- | --- | --- |
| O=C1CC(c2ccc(O)cc2)Oc2ccc(O)cc21 (stereo not shown) [Compound 2] | 94 | < 15 | 133 | 17.7 | < 15 | 35 | 56 |  |
| O=C1CC(c2cccc(O)c2)Oc2ccc(O)cc21 (stereo not shown) [Compound 1] | 85 | < 15 | 31 | 81.3 | < 15 | 57 | 50.4 | 81 |
| O=C1CC(c2ccc(O)c(O)c2)Oc2ccc(O)cc21 (stereo not shown) [Compound 3] | > 100 | < 15 | 82 | 34.6 | < 15 | 36 | 69 |  |
